Structures are written as SMILES.

Results on 21 molecules are retold here after patent publication US20220306647A1, “NOVEL INDOLE-2-CARBOXAMIDES ACTIVE AGAINST THE HEPATITUS B VIRUS (HBV)” (AICURIS GMBH & CO. KG, priority 2019, published 2022).

T1 sequence (P03146 whole entry, the tested form may be a part): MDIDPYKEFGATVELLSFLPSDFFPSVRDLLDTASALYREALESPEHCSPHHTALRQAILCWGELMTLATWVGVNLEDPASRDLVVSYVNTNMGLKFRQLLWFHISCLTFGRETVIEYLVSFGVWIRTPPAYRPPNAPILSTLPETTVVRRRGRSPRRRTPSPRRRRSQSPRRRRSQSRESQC

This assay has as its target T1, HBV core protein (C-terminal truncated core protein, 149 amino acids of the N-terminal assembly domain, BODIPY-FL labelled) (UniProt P03146).
T1 construct: fused on or other part: A single cysteine added after residue 149, at position 150; It carries the BODIPY-FL maleimide label
Kind of assay: Biochemical capsid assembly assay (fluorescence quenching). Conditions: assembly started with NaCl, fluorescence read after 6 min, read-out: Assembly activity. Here is the method: The screening for assembly effector activity was done based on a fluorescence quenching assay published by Zlotnick et al. (2007). The C-terminal truncated core protein containing 149 amino acids of the N-terminal assembly domain fused to a unique cysteine residue at position 150 and was expressed in E. coli using the pET expression system (Merck Chemicals, Darmstadt). Purification of core dimer protein was performed using a sequence of size exclusion chromatography steps. In brief, the cell pellet from 1 L BL21 (DE3) Rosetta2 culture expressing the coding sequence of core protein cloned NdeI/XhoI into expression plasmid pET21b was treated for 1 h on ice with a native lysis buffer (Qproteome Bacterial Protein Prep Kit; Qiagen, Hilden). After a centrifugation step the supernatant was precipitated during 2 h stirring on ice with 0.23 g/ml of solid ammonium sulfate. Following further centrifugation the resulting pellet was resolved in buffer A (100 mM Tris, pH 7.5; 100 mM NaCl; 2 mM DTT) and was subsequently loaded onto a buffer A equilibrated CaptoCore 700 column (GE HealthCare, Frankfurt). The column flow through containing the assembled HBV capsid was dialyzed against buffer N (50 mM NaHCO3 pH 9.6; 5 mM DTT) before urea was added to a final concentration of 3M to dissociate the capsid into core dimers for 1.5 h on ice. The protein solution was then loaded onto a 1L Sephacryl S300 column. After elution with buffer N core dimer containing fractions were identified by SDS-PAGE and subsequently pooled and dialyzed against 50 mM HEPES pH 7.5; 5 mM DTT. To improve the assembly capacity of the purified core dimers a second round of assembly and disassembly starting with the addition of 5 M NaCl and including the size exclusion chromatography steps described above was performed. From the last chromatography step core dimer containing fractions were pooled and stored in aliquots at concentrations between 1.5 to 2.0 mg/ml at −80° C.
Immediately before labelling the core protein was reduced by adding freshly prepared DTT in a final concentration of 20 mM. After 40 min incubation on ice storage buffer and DTT was removed using a Sephadex G-25 column (GE HealthCare, Frankfurt) and 50 mM HEPES, pH 7.5. For labelling 1.6 mg/ml core protein was incubated at 4° C. and darkness overnight with BODIPY-FL maleimide (Invitrogen, Karlsruhe) in a final concentration of 1 mM. After labelling the free dye was removed by an additional desalting step using a Sephadex G-25 column. Labelled core dimers were stored in aliquots at 4° C. In the dimeric state the fluorescence signal of the labelled core protein is high and is quenched during the assembly of the core dimers to high molecular capsid structures. The screening assay was performed in black 384 well microtiter plates in a total assay volume of 10 μl using 50 mM HEPES pH 7.5 and 1.0 to 2.0 μM labelled core protein. Each screening compound was added in 8 different concentrations using a 0.5 log-unit serial dilution starting at a final concentration of 100 μM, 31.6 μM or 10 μM, In any case the DMSO concentration over the entire microtiter plate was 0.5%. The assembly reaction was started by the injection of NaCl to a final concentration of […] which induces the assembly process to approximately 25% of the maximal quenched signal. 6 min after starting the reaction the fluorescence signal was measured using a Clariostar plate reader (BMG Labtech, Ortenberg) with an excitation of 477 nm and an emission of 525 nm. As 100% and 0% assembly control HEPES buffer containing 2.5 M and 0 M NaCl was used. Experiments were performed thrice in triplicates. EC50 values were calculated by non-linear regression analysis using the Graph Pad Prism 6 software (GraphPad Software, La Jolla, USA).
In the case of `C[C@@H](NC(=O)c1onc2c1CN(C(=O)c1cc3cc(F)c(F)cc3[nH]1)CC2)C(F)(F)F` [Example 115, 5-(5,6-difluoro-1H-indole-2-carbonyl)-N-[(2R)-1,1,1-trifluoropropan-2-yl]-4H,5H,6H,7H-[1,2]oxazolo[4,3-c]pyridine-3-carboxamide], the IC50 is below 5 µM.
Regarding `C[C@@H](NC(=O)c1onc2c1CN(C(=O)c1cc3c(Cl)cccc3[nH]1)CC2)C(F)(F)F` [Example 118, 5-(4-chloro-1H-indole-2-carbonyl)-N-[(2R)-1,1,1-trifluoropropan-2-yl]-4H,5H,6H,7H-[1,2]oxazolo[4,3-c]pyridine-3-carboxamide], the IC50 was below 5 µM.
To `O=C(c1cc2c(F)c(F)ccc2[nH]1)N1CCc2nn3c(c2C1)C(=O)N(CCO)C1(CC3)CC1` [Example 120, 4′-(4,5-difluoro-1H-indole-2-carbonyl)-13′-(2-hydroxyethyl)-4′, 8′,9′,13′-tetraazaspiro[cyclopropane-1,12′-tricyclo[7.5.0.0^2,7]tetradecane]-1′,7′-dien-14′-one] belongs below 5 µM; to `O=C(c1cc2cc(F)c(F)cc2[nH]1)N1CCc2nn3c(c2C1)C(=O)N(CCO)C1(CC3)CC1` [Example 121, 4′-(5,6-difluoro-1H-indole-2-carbonyl)-13′-(2-hydroxyethyl)-4′, 8′,9′,13′-tetraazaspiro[cyclopropane-1,12′-tricyclo[7.5.0.0^2,7]tetradecane]-1′,7′-dien-14′-one], below 5 µM.
On to `O=C(c1cc2cc(F)c(Cl)cc2[nH]1)N1CCc2nn3c(c2C1)C(=O)N(CCO)C1(CC3)CC1` [Example 122, 4′-(6-chloro-5-fluoro-1H-indole-2-carbonyl)-13′-(2-hydroxyethyl)-4′,8′,9′,13′-tetraazaspiro[cyclopropane-1,12′-tricyclo[7.5.0.0^2,7]tetradecane]-1′,7′-dien-14′-one], for which the IC50 is below 5 µM.
Consider `COCCN1C(=O)c2c3c(nn2CCC12CC2)CCN(C(=O)c1cc2ccccc2[nH]1)C3` [Example 123, 4′-(1H-indole-2-carbonyl)-13′-(2-methoxyethyl)-4′, 8′,9′,13′-tetraazaspiro[cyclopropane-1,12′-tricyclo[7.5.0.0^2,7]tetradecane]-1′,7′-dien-14′-one], for which the IC50 was below 5 µM.
`CN(C)CCN1C(=O)c2c3c(nn2CCC12CC2)CCN(C(=O)c1cc2ccccc2[nH]1)C3` [Example 124, 13′-[2-(dimethylamino)ethyl]-4′-(1H-indole-2-carbonyl)-4′,8′,9′,13′-tetraazaspiro[cyclopropane-1,12′-tricyclo[7.5.0.0^2,7]tetradecane]-1′,7′-dien-14′-one]: the IC50 lay within 5 to 10 µM.
Under `CN1CCN(CCN2C(=O)c3c4c(nn3CCC23CC3)CCN(C(=O)c2cc3ccccc3[nH]2)C4)CC1` [Example 125, 4′-(1H-indole-2-carbonyl)-13′-[2-(4-methylpiperazin-1-yl)ethyl]-4′,8′,9′,13′-tetraazaspiro[cyclopropane-1,12′-tricyclo[7.5.0.0^2,7]tetradecane]-1′,7′-dien-14′-one] stands below 5 µM; under `O=C(NC1(COC(F)F)CC1)c1onc2c1CN(C(=O)c1cc3ccccc3[nH]1)CC2` [Example 132, N-{1-[(difluoromethoxy)methyl]cyclopropyl}-5-(1H-indole-2-carbonyl)-4H,5H,6H,7H-[1,2]oxazolo[4,3-c]pyridine-3-carboxamide], below 5 µM; under `O=C(NC1(COC(F)F)CC1)c1onc2c1CN(C(=O)c1cc3c(Cl)cccc3[nH]1)CC2` [Example 133, 5-(4-chloro-1H-indole-2-carbonyl)-N-{1-[(difluoromethoxy)methyl]cyclopropyl}-4H,5H,6H,7H-[1,2]oxazolo[4,3-c]pyridine-3-carboxamide], below 5 µM.
As to `O=C(c1cc2ccccc2[nH]1)N1CCc2nn3c(c2C1)C(=O)N(CCN1CCOCC1)C1(CC3)CC1` [Example 134, 4′-(1H-indole-2-carbonyl)-13′-[2-(morpholin-4-yl)ethyl]-4′,8′,9′,13′-tetraazaspiro[cyclopropane-1,12′-tricyclo[7.5.0.0^2,7]tetradecane]-1′,7′-dien-14′-one], the IC50 is below 5 µM.
With `CN(C(=O)c1n[nH]c2c1CN(C(=O)c1cc3cc(F)c(Cl)cc3[nH]1)CC2)C1(c2ncc(C(=O)O)cn2)CC1` [Example 136, 2-{1-[N-methyl-5-(6-chloro-5-fluoro-1H-indole-2-carbonyl)-2H,4H,5H,6H,7H-pyrazolo[4,3-c]pyridine-3-amido]cyclopropyl}pyrimidine-5-carboxylic acid], the IC50 is below 5 µM.
On to `O=C(O)c1ccc(C2(NC(=O)c3cnn4c3CN(C(=O)c3cc5ccccc5[nH]3)CC4)CC2)cc1` [Example 137, 4-{1-[5-(1H-indole-2-carbonyl)-4H,5H,6H,7H-pyrazolo[1,5-a]pyrazine-3-amido]cyclopropyl}benzoic acid], for which the IC50 was below 5 µM.
Consider `C[C@@H](NC(=O)c1ncn2c1CN(C(=O)c1cc3ccccc3[nH]1)CC2)C(F)(F)F` [Example 138, 7-(1H-indole-2-carbonyl)-N-[(2R)-1,1,1-trifluoropropan-2-yl]-5H,6H,7H,8H-imidazo[1,5-a]pyrazine-1-carboxamide], for which the IC50 is below 5 µM.
On to `CN1CCCn2nc3c(c2C1=O)CN(C(=O)c1cc2ccccc2[nH]1)CC3` [Example 139, 4-(1H-indole-2-carbonyl)-13-methyl-4,8,9,13-tetraazatricyclo[7.5.0.0^2,7]tetradeca-1,7-dien-14-one], for which the IC50 was below 5 µM.
Take `O=C(c1cc2ccccc2[nH]1)N1CCc2nn3c(c2C1)C(=O)N(CCO)C1(CC1)C3` [Example 140, 4′-(2-hydroxyethyl)-12′-(1H-indole-2-carbonyl)-4′,7′,8′,12′-tetraazaspiro[cyclopropane-1,5′-tricyclo[7.4.0.0^2,7]tridecane]-1′,8′-dien-3′-one]: the IC50 was below 5 µM.
On to `O=C(NC1(COC(F)F)CC1)c1onc2c1CN(C(=O)c1cc3cc(F)c(F)cc3[nH]1)CC2` [Example 141, 5-(5,6-difluoro-1H-indole-2-carbonyl)-N-{1-[(difluoromethoxy)methyl]cyclopropyl}-4H,5H,6H,7H-[1,2]oxazolo[4,3-c]pyridine-3-carboxamide], for which the IC50 was below 5 µM.
Turning to `O=C(NC1(COC(F)F)CC1)c1onc2c1CN(C(=O)c1cc3c(F)c(F)ccc3[nH]1)CC2` [Example 143, 5-(4,5-difluoro-1H-indole-2-carbonyl)-N-{1-[(difluoromethoxy)methyl]cyclopropyl}-4H,5H,6H,7H-[1,2]oxazolo[4,3-c]pyridine-3-carboxamide], the IC50 was below 5 µM.
To `O=C(NC1(COC(F)F)CC1)c1onc2c1CN(C(=O)c1cc3cc(F)c(Cl)cc3[nH]1)CC2` [Example 144, 5-(6-chloro-5-fluoro-1H-indole-2-carbonyl)-N-{1-[(difluoromethoxy)methyl]cyclopropyl}-4H,5H,6H,7H-[1,2]oxazolo[4,3-c]pyridine-3-carboxamide] belongs below 5 µM; to `CC1CCn2nc3c(c2C(=O)N1C)CN(C(=O)c1cc2ccccc2[nH]1)CC3` (stereo not drawn) [Example 145, 4-(1H-indole-2-carbonyl)-12,13-dimethyl-4,8,9,13-tetraazatricyclo[7.5.0.0^2,7]tetradeca-1,7-dien-14-one], below 5 µM.
With `O=C(c1cc2ccccc2[nH]1)N1CCc2nn3c(c2C1)C(=O)N(CCOC(F)(F)F)C1(CC3)CC1` [Example 146, 4′-(1H-indole-2-carbonyl)-13′-[2-(trifluoromethoxy)ethyl]-4′,8′,9′,13′-tetraazaspiro[cyclopropane-1,12′-tricyclo[7.5.0.0^2,7]tetradecane]-1′,7′-dien-14′-one], the IC50 was below 5 µM.
